Laboratory results as given in patent US9005677B2, “Autophagy enhancer for treatment of neurodegenerative diseases” (Macau University of Science and Technology, priority 2013, dated 2015).

Key:
[1] = test system: Atg7-knockout mouse embryonic fibroblasts; assay: GFP-LC3 puncta in Atg7 deficient MEFs; format: cell-based
Experimental: (§1) Quantification of autophagy GFP-LC3 Puncta in Atg7 wild type and deficient MEFs. GFP-LC3 puncta formation was quantified as described previously. In brief, both Atg7 wild-type and deficient mouse embryonic fibroblasts (MEFs) grown on coverslips in a 6-well plate were treated with indicated concentrations of Onjisaponin B. The cells were then fixed in 4% paraformaldehyde for 20 minutes at room temperature and then rinsed with PBS. Slides were mounted with FluorSave™ mounting media (Calbiochem, San Diego, Calif.) and examined by fluorescence microscopy. The number of GFP-positive cells with GFP-LC3 puncta formation was examined under the Nikon ECLIPSE 80i microscope. Representative images were captured with CCD digital camera Spot RT3™ (Diagnostic Instruments, Inc., Melville, N.Y.). To quantify for autophagy, the percentage of cells with punctate GFP-LC3 fluorescence was calculated by counting the number of the cells with punctate GFP-LC3 fluorescence in GFP-positive cells. A minimum of 150 cells from 3 randomly selected fields was scored.

[2] = test system: mutant A53T α-synuclein in doxycycline inducible PC 12 cell line; assay: Clearance of mutant A53T α-synuclein, immunoblotting against myc tag; format: cell-based, rat; details: PC 12 cells, 24 hours after doxycycline removal
Experimental: Removal of mutant huntingtin and mutant α-synuclein. PC 12 cells were transfected transiently with EGFP-HDQ74 plasmids for 24 hours using Lipofectamine Plus LTX reagent (Invitrogen) according to the manufacturer's protocol. The transfected cells were then treated with Onjisaponin B for 24 hours. The removal of mutant huntingtin, EGFP-HDQ74, was then quantitated by immunoblotting with antibody against EGFP. To measure the clearance of α-synuclein in cellular model, the overexpression of mutant A53T α-synuclein was first induced by the addition of doxycycline (1 μg/ml) (Sigma) for 24 hours, by using the doxycycline inducible PC 12 cell line transfected with A53T α-synuclein plasmid. The expression of mutant A53T α-synuclein was then switched off by removing doxycycline from medium. Cells were then incubated with Onjisaponin B for a further 24 hours. The clearance of mutant α-synuclein was then measured by immunoblotting with antibody against myc tag.

[3] = test system: Doxycycline-inducible PC-12 cell lines transfected with mutant A53T α-synuclein; assay: Cell death by flow cytometry (Annexin V / propidium iodide) in PC-12 cells expressing mutant A53T α-synuclein; format: cell-based, rat; details: 50 μM, 24 h after doxycycline removal
Experimental: Flow cytometry analysis: Doxycycline-inducible PC-12 cell lines transfected with mutant A53T α-synuclein were induced with doxycycline (1 μg/mL) for 24 h and the expression of transgene was then switched off by the removal of doxycycline. Cells were then treated with Onjisaponin B (50 μM) for a further 24 h after doxycycline removal. The control group (Ctrl) contained cells without the addition of doxycycline, while the Dox group contained cells with the removal of doxycycline (1 μg/mL) after 24 h of induction but without treatment of Onjisaponin B. Cell death was then assessed by flow cytometry using Annexin V staining kit and Propidium iodide staining. Data from the bar chart represented the means±S.D. of three independent experiments. **p<0.01; *p<0.05. Flow cytometry was carried out using a FACSCalibur flow cytometer. Data acquisition and analysis were performed with CellQuest.

[4] = test system: Atg7 wild-type mouse embryonic fibroblasts; assay: GFP-LC3 puncta in Atg7 wild-type MEFs; format: cell-based
Experimental: as §1

[5] = test system: P-AMPK and P-p70S6K in PC12 cells; assay: Western blot of mTOR signaling marker proteins; format: cell-based, rat
Experimental: Detection of mTOR signaling marker proteins. PC12 cells treated with indicated time and concentrations of Onjisaponin B were harvested and lysed in RIPA buffer (Cell Signaling). The cell lysates were then resolved by SDS-PAGE. After electrophoresis, the proteins from SDS-PAGE were transferred to nitrocellulose membrane which was then blocked with 5% non-fat dried milk for 60 minutes. The membrane was then incubated with P-p70S6K, p70S6K, P-AMPK, AMPK primary antibodies (1:1000) in TBST overnight at 4° C. respectively. After that, the membrane was further incubated with HRP-conjugated secondary antibodies for 60 minutes. Finally, protein bands were visualized by using the ECL Western Blotting Detection Reagents (Invitrogen).

[6] = test system: PC-12 cells transfected with mutant huntingtin EGFP-HDQ74; assay: MTT viability of PC-12 cells expressing mutant huntingtin; format: cell-based, rat; details: 25 μmol/L, 2 days
Experimental: Cell cytotoxicity assay: Cytotoxicity was assessed using the 344,5-dimethylthiazol-2-yl)-2,5-diphenyltetrazolium bromide assay as described previously. PC-12 cells were transfected with or without mutant huntingtin EGFP-HDQ74 for 24 h. The PC-12 cells were then seeded on 96-well plates with 4000 cells per well and then exposed to the indicated concentrations of Onjisaponin B (25 μmol/L) for 2 days. Subsequently, 10 μL of MTT reagents was added to each well and incubated at 37° C. for 4 hours, followed by the addition of 100 μL solubilization buffer (10% SDS in 0.01 mol/L HCl) and overnight incubation. Absorbance at 585 nm was determined from each well on the next day. The percentage of cell viability was calculated using the following formula: Cell viability (%)=Cells number treated/Cells number DMSO control×100. Data was obtained from three independent experiments.

[7] = test system: EGFP-HDQ74 transfected Atg7 wild-type mouse embryonic fibroblasts; assay: Mutant huntingtin aggregates and LC3 conversion in Atg7 wild-type MEFs; format: cell-based
Experimental: Quantification of mutant huntingtin aggregates in PC12, Atg7 wild type and deficient MEFs. In brief, both EGFP-HDQ74 transfected PC12, Atg7 wild-type and deficient mouse embryonic fibroblasts (MEFs) grown on coverslips in a 6-well plate were treated with indicated concentrations of Onjisaponin B. The cells were then fixed in 4% paraformaldehyde for 20 minutes at room temperature and then rinsed with PBS. Slides were mounted with FluorSave™ mounting media (Calbiochem, San Diego, Calif.) and examined by fluorescence microscopy. The number of cells with GFP-aggregates formation was examined under the Nikon ECLIPSE 80i microscope. Representative images were captured with CCD digital camera Spot RT3™ (Diagnostic Instruments, Inc., Melville, N.Y.). To quantify the clearance of mutant huntingtin, the percentage of cells with GFP-aggregates was calculated by counting the number of the cells with punctate GFP-LC3 fluorescence in GFP-positive cells. A minimum of 150 cells from 3 randomly selected fields was scored.
Detection of autophagic marker protein LC3 conversion and HTT 74 mutant aggregates. After drug treatments for Atg7 wild type and deficient MEFs, cells were harvested and lysed in RIPA buffer (Cell Signaling Technologies Inc., Beverly, Mass.). The cell lysates were then resolved by SDS-PAGE. […]

COc1ccc(/C=C/C(=O)O[C@@H]2[C@H](O[C@@H]3O[C@@H](C)[C@H](O)[C@@H](O)[C@H]3O)[C@@H](O[C@@H]3O[C@@H](C)[C@H](O[C@@H]4OC[C@@H](O[C@@H]5O[C@H](CO)[C@H](O)[C@H](O)[C@H]5O)[C@H](O)[C@H]4O)[C@@H](O)[C@H]3O)[C@H](OC(=O)[C@]34CCC(C)(C)C[C@H]3C3=CC[C@@H]5[C@@]6(C)C[C@H](O)[C@H](O[C@@H]7O[C@H](CO)[C@@H](O)[C@H](O)[C@H]7O)[C@@](C)(C(=O)O)[C@@H]6CC[C@@]5(C)[C@]3(CO)CC4)O[C@@H]2C)cc1 [Onjisaponin B]
GFP-LC3 puncta formation in Atg7-knockout cells [1]: not in Atg7-knockout mouse embryonic fibroblasts
Clearance of myc-tagged mutant A53T α-synuclein [2]: accelerate the clearance
Toxicity in PC-12 cells expressing mutant A53T α-synuclein (cell death, flow cytometry) [3]: reduced toxicity
GFP-LC3 puncta formation in wild type Atg7 cells [4]: induce GFP-LC3 puncta formation
Phosphorylation of AMPK ([5]; 25 μM at 8, 16, 24 hour, 3, 6.25, 12.5, 25 μM at 24 hour): activate the phosphorylation of AMPK in a time dependent manner
p70S6K phosphorylation ([5]; same treatments as AMPK blot): concomitant reduction in its downstream p70S6K phosphorylation
Toxicity in PC-12 cells expressing mutant huntingtin (cell viability, MTT) [6]: reduced toxicity
Clearance of EGFP-HDQ74 inclusions in autophagy-wild type cells [7]: enhanced the clearance of EGFP-HDQ74 inclusions
LC3II formation in wild type Atg7 cells transfected with EGFP-HDQ74 ([7]; western blot): LC3II formation in wild type Atg7 cells
